The values below come from patent US20140323504A1, “Pyrazolo[4,3-c]Pyridine Derivatives As Kinase Inhibitors” (Cellzome Limited, priority 2011, published 2014).

For assay [1], the target named is T1, BTK (Homo sapiens, UniProt Q06187).
T1 construct: purchased ProQinase GmbH, Freiburg, Germany
Kind of assay: Radiometric protein kinase assay (33PanQinase, ProQinase), BTK. Type of assay: biochemical. The settings on record: read-out: BTK enzyme assay IC50. On the procedure:
(§1) A radiometric protein kinase assay (^33PanQinase® Activity Assay; ProQinase GmbH, Freiburg, Germany) was used for measuring the kinase activity of the protein kinases BLK, BTK, ITK and JAK3. All kinase assays were performed in 96-well FlashPlates™ from PerkinElmer (Boston, Mass., USA) in a 50 μl reaction volume. The reaction cocktail was pipetted in four steps in the following order: • 20 μl of assay buffer (standard buffer) • 5 μl of ATP solution (in H2O) • 5 μl of test compound (in 10% DMSO) • 10 μl of substrate/10 μl of enzyme solution (premixed)
(§2) The reaction cocktails were incubated at 30° C. for 60 minutes. The reaction was stopped with 50 μl of 2% (v/v) H3PO4, plates were aspirated and washed two times with 200 μl 0.9% (w/v) NaCl. Incorporation of ^33Pi was determined with a microplate scintillation counter (Microbeta, Wallac). All assays were performed with a BeckmanCoulter/SAGIAN™ Core System.

For assay [2], the target named is T2, ITK (Homo sapiens, UniProt Q08881).
T2 construct: purchased ProQinase GmbH, Freiburg, Germany
T2 sequence (Q08881 1-620): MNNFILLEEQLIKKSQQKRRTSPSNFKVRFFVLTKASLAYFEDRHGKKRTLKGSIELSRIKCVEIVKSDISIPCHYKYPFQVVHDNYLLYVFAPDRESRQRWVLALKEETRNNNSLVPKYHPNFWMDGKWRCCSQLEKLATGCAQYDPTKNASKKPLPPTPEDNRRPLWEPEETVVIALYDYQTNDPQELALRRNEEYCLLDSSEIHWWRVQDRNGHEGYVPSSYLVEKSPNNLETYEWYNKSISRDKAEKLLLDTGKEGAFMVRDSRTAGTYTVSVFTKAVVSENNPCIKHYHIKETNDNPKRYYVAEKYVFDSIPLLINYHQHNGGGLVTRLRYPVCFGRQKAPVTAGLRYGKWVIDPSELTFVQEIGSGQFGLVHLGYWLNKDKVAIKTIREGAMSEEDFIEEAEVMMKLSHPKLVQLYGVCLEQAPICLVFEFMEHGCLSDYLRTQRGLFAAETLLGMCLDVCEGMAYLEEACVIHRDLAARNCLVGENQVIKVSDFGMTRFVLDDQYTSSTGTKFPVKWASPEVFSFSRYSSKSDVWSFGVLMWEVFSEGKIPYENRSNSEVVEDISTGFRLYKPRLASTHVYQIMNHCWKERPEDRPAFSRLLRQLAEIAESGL
Kind of assay: Radiometric protein kinase assay (33PanQinase, ProQinase), ITK. Type of assay: biochemical. The following applies: ATP at apparent Km (1.0 μM); for IC50: read-out: ITK enzyme assay IC50. On the procedure: as §1, §2

In assay [3] the target is T1, BTK. Kind of assay: Kinobeads assay with quantitative mass spectrometry, BTK. The format is binding. The following applies: Jurkat/Ramos lysate, read-out: BTK inhibition value (IC50). As for the experimental part:
(§3) Selected compounds of the present invention as described in the previous examples were tested in a Kinobeads™ assay as described (WO-A 2006/134056; Bantscheff et al., 2007. Nature Bioteclmol. 25, 1035-1044).
(§4) Compounds were incubated with cell lysate aliquots (1:1 mix of Jurkat and Ramos cell lysates) for 45 minutes at 4° C. and allowed to bind to the proteins in the lysate sample. Then the Kinobeads™ affinity matrix was added to capture proteins that were not interacting with the previously added compound. After this two hour incubation step at 4° C. beads were separated from the lysate and bead bound proteins were eluted in SDS sample buffer and subsequently separated by SDS-Polyacrylamide gel electrophoresis. The gel was stained with colloidal Coomassie and stained areas of each gel lane were cut out and subjected to in-gel proteolytic digestion with trypsin. Peptides originating from the different gel areas were labeled with isobaric tagging reagents (TMT reagents, Thermofisher) as shown in Table 7. The TMT reagents are a set of multiplexed, amine-specific, stable isotope reagents that can label peptides in up to six different biological samples enabling simultaneous identification and quantitation of peptides. The combined samples were fractionated using reversed-phase chromatography at pH 11 and fractions were subsequently analyzed with a nano-flow liquid chromatography system coupled online to a tandem mass spectrometer (LC-MSMS) experiment followed by reporter ion quantification in the MSMS spectra (Ross et al., 2004. Mol. Cell. Proteomics 3(12):1154-1169; Dayon et al., 2008. Anal. Chem. 80(8):2921-2931; Thompson et al., 2003. Anal. Chem. 75(8):1895-1904). Further experimental protocols can be found in WO2006/134056 and previous publications (Bantscheff et al., 2007. Nat. Biotechnol. 25, 1035-1044; Bantscheff et al., 2011. Nat. Biotechnol. 29(3):255-265).

In assay [4] the target is T2, ITK. Kind of assay: Kinobeads assay with quantitative mass spectrometry, ITK. Type of assay: binding. The settings on record: Jurkat/Ramos lysate, read-out: ITK inhibition value (IC50). On the procedure:
as §3, §4

T1 sequence (Q06187 whole entry): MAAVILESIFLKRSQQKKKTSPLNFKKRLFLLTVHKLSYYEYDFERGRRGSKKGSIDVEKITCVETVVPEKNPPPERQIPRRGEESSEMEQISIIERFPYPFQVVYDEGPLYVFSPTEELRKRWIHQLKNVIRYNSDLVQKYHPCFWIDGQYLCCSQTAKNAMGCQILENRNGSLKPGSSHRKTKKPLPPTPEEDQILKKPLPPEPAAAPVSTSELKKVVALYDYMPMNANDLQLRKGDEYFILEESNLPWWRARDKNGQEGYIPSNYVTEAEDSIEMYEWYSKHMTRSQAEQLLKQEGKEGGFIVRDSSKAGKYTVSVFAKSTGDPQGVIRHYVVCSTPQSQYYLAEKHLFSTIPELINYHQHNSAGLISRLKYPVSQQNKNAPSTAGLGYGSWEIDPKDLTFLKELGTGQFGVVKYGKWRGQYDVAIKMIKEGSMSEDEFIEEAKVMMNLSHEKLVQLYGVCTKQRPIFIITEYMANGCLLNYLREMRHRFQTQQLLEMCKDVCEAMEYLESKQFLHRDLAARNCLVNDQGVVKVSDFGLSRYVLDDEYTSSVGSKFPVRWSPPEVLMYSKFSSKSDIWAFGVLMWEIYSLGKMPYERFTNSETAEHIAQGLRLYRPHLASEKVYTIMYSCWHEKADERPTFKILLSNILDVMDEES

The IC50 is the concentration at which inhibition is half-maximal. In the case of `C=CC(=O)Nc1cccc(Cn2ncc3cnc(Nc4cnn(C)c4)nc32)c1` [Example 1, N-(3-((6-((1-Methyl-1H-pyrazol-4-yl)amino)-1H-pyrazolo[3,4-d]pyrimidin-1-yl)methyl)phenyl)acrylamide], the IC50 was 20 nM at BTK [1], 230 nM at ITK [2], 12 nM at BTK [3] and 86 nM at ITK [4].
Turning to `C=CC(=O)Nc1cc(Cn2ncc3cnc(Nc4cnn(C)c4)nc32)ccc1F` [Example 2, […]], the results for the IC50 on BTK [1], at BTK [3] and at ITK [4] were 323 nM, 72 nM and 818 nM, respectively.
Consider `C#CC(=O)Nc1cccc(Cn2ncc3cnc(Nc4cnn(C)c4)nc32)c1` [Example 3, N-(3-((6-((1-Methyl-1H-pyrazol-4-yl)amino)-1H-pyrazolo[3,4-d]pyrimidin-1-yl)methyl)phenyl)propiolamide], for which the IC50 on BTK [1] stood at 1 nM; at ITK [2], 3 nM; on BTK [3] it was 12 nM; at ITK [4] it was 12 nM.
Consider `C=CS(=O)(=O)Nc1cccc(Cn2ncc3cnc(Nc4cnn(C)c4)nc32)c1` [Example 4, N-(3-((6-((1-Methyl-1H-pyrazol-4-yl)amino)-1H-pyrazolo[3,4-d]pyrimidin-1-yl)methyl)phenyl)ethenesulfonamide], for which the IC50 at BTK [1] was 20 nM; on ITK [2], 80 nM.
With `CC(=O)Nc1cccc(Cn2ncc3cnc(Nc4cnn(C)c4)nc32)c1` [compound 2, N-(3-((6-((1-methyl-1H-pyrazol-4-yl)amino)-1H-pyrazolo[3,4-d]pyrimidin-1-yl)methyl)phenyl)acetamide, reference compound], the IC50 on BTK [1] stood at 2000 nM. Further, the “ITK enzyme assay IC50” value at ITK [2] is “inactive”.
